Values after ≈ are worked out from the molar mass of the structure shown.

Experiment [1] concerns Staphylococcus aureus. Briefly: Antibacterial activity against wild type methicillin-sensitive Staphylococcus aureus ATCC 29213 assessed as inhibition of bacterial growth incubated for 18 to 24 hrs by broth microdilution method. The format is functional. The settings on record: time 18-24 hrs.
Experiment [2] is described as follows: Inhibition of Staphylococcus aureus Gyrase B using linear pBR322 DNA as substrate incubated for 30 mins in presence of ATP by ADP-Glo assay. (ADP-Glo turns the ADP formed in a reaction into a luminescent signal.)
Experiment [3] has as its system Staphylococcus epidermidis. The experiment is described as follows: Antibacterial activity against methicillin-sensitive Staphylococcus epidermidis clinical isolate 15-3 assessed as inhibition of bacterial growth incubated for 18 to 24 hrs by broth microdilution method. The experiment is classed as functional. The settings on record: time 18-24 hrs. A general note: In broth dilution the organism is exposed to a series of concentrations in liquid medium.

Experiment [4] relates to Staphylococcus aureus. Briefly: Antibacterial activity against methicillin-resistant Staphylococcus aureus clinical isolate 15-2 assessed as inhibition of bacterial growth incubated for 18 to 24 hrs by broth microdilution method. The settings on record: time 18-24 hrs. The experiment is classed as functional.
Experiment [5] relates to Staphylococcus epidermidis. Briefly: Antibacterial activity against methicillin-resistant Staphylococcus epidermidis clinical isolate 15-2 assessed as inhibition of bacterial growth incubated for 18 to 24 hrs by broth microdilution method. The format is functional. The settings on record: time 18-24 hrs.
Experiment [6] concerns Enterococcus faecium. The experiment is described as follows: Antibacterial activity against Enterococcus faecium clinical isolate 15-2 assessed as inhibition of bacterial growth incubated for 18 to 24 hrs by broth microdilution method. The format is functional. The settings on record: time 18-24 hrs.
Experiment [7] relates to Staphylococcus aureus. The experiment is described as follows: Antibacterial activity against methicillin-resistant Staphylococcus aureus clinical isolate 15-3 assessed as inhibition of bacterial growth incubated for 18 to 24 hrs by broth microdilution method. The format is functional. The settings on record: time 18-24 hrs.
Experiment [8] has as its system Enterococcus faecalis. Briefly: Antibacterial activity against Enterococcus faecalis clinical isolate 15-2 assessed as inhibition of bacterial growth incubated for 18 to 24 hrs by broth microdilution method. The settings on record: time 18-24 hrs. The format is functional.
Experiment [9] relates to Staphylococcus aureus. Briefly: Antibacterial activity against methicillin-resistant Staphylococcus aureus clinical isolate 15-7 assessed as inhibition of bacterial growth incubated for 18 to 24 hrs by broth microdilution method. The format is functional. The settings on record: time 18-24 hrs.
In experiment [10] the test system is Staphylococcus aureus. Briefly: Antibacterial activity against methicillin resistant and vancomycin-intermediate sensitive Staphylococcus aureus ATCC 700699 assessed as inhibition of bacterial growth incubated for 18 to 24 hrs by broth microdilution method. The format is functional. The settings on record: time 18-24 hrs.
For experiment [11], the system named is Enterococcus faecalis. The experiment is described as follows: Antibacterial activity against vancomycin-resistant Enterococcus faecalis ATCC 51575 assessed as inhibition of bacterial growth incubated for 18 to 24 hrs by broth microdilution method. The experiment is classed as functional. The settings on record: time 18-24 hrs.
Experiment [12] relates to Enterococcus faecium. Briefly: Antibacterial activity against Enterococcus faecium clinical isolate 15-1 assessed as inhibition of bacterial growth incubated for 18 to 24 hrs by broth microdilution method. The format is functional. The settings on record: time 18-24 hrs.
Experiment [13] relates to Enterococcus faecalis. The experiment is described as follows: Antibacterial activity against vancomycin-resistant Enterococcus faecalis ATCC 700802 assessed as inhibition of bacterial growth incubated for 18 to 24 hrs by broth microdilution method. The format is functional. The settings on record: time 18-24 hrs.
In experiment [14] the test system is Staphylococcus aureus. Briefly: Antibacterial activity against methicillin-resistant Staphylococcus aureus clinical isolate 15-8 assessed as inhibition of bacterial growth incubated for 18 to 24 hrs by broth microdilution method. The format is functional. The settings on record: time 18-24 hrs.
In experiment [15] the test system is Staphylococcus epidermidis. The experiment is described as follows: Antibacterial activity against methicillin-resistant Staphylococcus epidermidis clinical isolate 15-3 assessed as inhibition of bacterial growth incubated for 18 to 24 hrs by broth microdilution method. The format is functional. The settings on record: time 18-24 hrs.
Experiment [16] concerns Enterococcus faecalis. The experiment is described as follows: Antibacterial activity against Enterococcus faecalis clinical isolate 15-1 assessed as inhibition of bacterial growth incubated for 18 to 24 hrs by broth microdilution method. The format is functional. The settings on record: time 18-24 hrs.
The subject of experiment [17] is Staphylococcus epidermidis. The experiment is described as follows: Antibacterial activity against methicillin-resistant Staphylococcus epidermidis clinical isolate 15-1 assessed as inhibition of bacterial growth incubated for 18 to 24 hrs by broth microdilution method. The settings on record: time 18-24 hrs. The experiment is classed as functional.
Experiment [18] relates to Staphylococcus aureus. Briefly: Antibacterial activity against methicillin-resistant Staphylococcus aureus clinical isolate 15-9 assessed as inhibition of bacterial growth incubated for 18 to 24 hrs by broth microdilution method. The format is functional. The settings on record: time 18-24 hrs.
Experiment [19] has as its system Staphylococcus aureus. Briefly: Antibacterial activity against methicillin resistant and vancomycin-intermediate sensitive Staphylococcus aureus ATCC 700788 assessed as inhibition of bacterial growth incubated for 18 to 24 hrs by broth microdilution method. The experiment is classed as functional. The settings on record: time 18-24 hrs.
Experiment [20] relates to Staphylococcus aureus. Briefly: Antibacterial activity against methicillin-resistant Staphylococcus aureus clinical isolate 15-1 assessed as inhibition of bacterial growth incubated for 18 to 24 hrs by broth microdilution method. The format is functional. The settings on record: time 18-24 hrs.
The subject of experiment [21] is Staphylococcus aureus. The experiment is described as follows: Antibacterial activity against methicillin-resistant Staphylococcus aureus clinical isolate 15-6 assessed as inhibition of bacterial growth incubated for 18 to 24 hrs by broth microdilution method. The settings on record: time 18-24 hrs. The experiment is classed as functional.
Experiment [22] concerns Staphylococcus epidermidis. Briefly: Antibacterial activity against methicillin-sensitive Staphylococcus epidermidis clinical isolate 15-4 assessed as inhibition of bacterial growth incubated for 18 to 24 hrs by broth microdilution method. The experiment is classed as functional. The settings on record: time 18-24 hrs.
The subject of experiment [23] is Enterococcus faecalis. Briefly: Antibacterial activity against vancomycin-resistant Enterococcus faecalis ATCC 51299 assessed as inhibition of bacterial growth incubated for 18 to 24 hrs by broth microdilution method. The settings on record: time 18-24 hrs. The format is functional.

As to `CCn1c(=O)c(C(=O)Nc2nnc(-c3ccccc3OC)s2)c(O)c2ccccc21`, the MIC – broadly, the lowest concentration that inhibits growth of the organism – in [1] turned out to be 3.12 mg/L (≈ 7.39 µM). Also, the IC50 (commonly the concentration that gives 50% inhibition) in experiment [2] came to 0.76 µM.

Take `CCn1c(=O)c(C(=O)Nc2nnc(-c3cccc(C)c3)s2)c(O)c2ccccc21`: in [1], the MIC came out at 12.5 mg/L (≈ 30.8 µM). Also, in [2], the IC50 amounted to 1.75 µM.

On to `CCn1c(=O)c(C(=O)Nc2nncs2)c(O)c2ccccc21`, for which the MIC in [1] amounted to 1.56 mg/L (≈ 4.93 µM). Besides, the IC50 in experiment [2] is 0.11 µM.

For the molecule `CCn1c(=O)c(C(=O)Nc2nnc(-c3cscn3)s2)c(O)c2ccccc21`, the MIC in experiment [3] was found to be 8 mg/L (≈ 20 µM); in [4] it was 4 mg/L (≈ 10 µM); in experiment [5] it was 8 mg/L (≈ 20 µM); in experiment [6], 4 mg/L (≈ 10 µM); in experiment [7], 4 mg/L (≈ 10 µM); in experiment [8] it was 4 mg/L (≈ 10 µM). Also, the MIC was 4 mg/L (≈ 10 µM) in experiment [9]; 0.78 mg/L (≈ 1.95 µM) in experiment [1]; 4 mg/L (≈ 10 µM) in [10]; 32 mg/L (≈ 80.1 µM) in [11]; 8 mg/L (≈ 20 µM) in experiment [12]; 32 mg/L (≈ 80.1 µM) in experiment [13]. Also, the MIC in [14], in experiment [15], in [16], in experiment [17], in experiment [18] and in experiment [19] was 4 mg/L (≈ 10 µM) in each case. The MIC was 4 mg/L (≈ 10 µM) in experiment [20], 4 mg/L (≈ 10 µM) in [21], 4 mg/L (≈ 10 µM) in experiment [22] and 32 mg/L (≈ 80.1 µM) in [23]. Further, the half-maximal inhibitory concentration (IC50) in experiment [2] came out at 0.16 µM.

Regarding `CCn1c(=O)c(C(=O)Nc2nnc(-c3ccccc3)s2)c(O)c2ccccc21`, the MIC in experiment [3] is 1 mg/L (≈ 2.55 µM); in experiment [4], 2 mg/L (≈ 5.1 µM); in [5], 1 mg/L (≈ 2.55 µM); in experiment [6], 2 mg/L (≈ 5.1 µM); in experiment [7] it was 1 mg/L (≈ 2.55 µM); in [8] it was 1 mg/L (≈ 2.55 µM). The MIC came to 1 mg/L (≈ 2.55 µM) in [9]; 0.39 mg/L (≈ 0.994 µM) in experiment [1]; 2 mg/L (≈ 5.1 µM) in experiment [10]; 1 mg/L (≈ 2.55 µM) in experiment [11]; 1 mg/L (≈ 2.55 µM) in experiment [12]; 1 mg/L (≈ 2.55 µM) in experiment [13]. In addition, the MIC in experiment [14] was 0.5 mg/L (≈ 1.27 µM); in experiment [15] it was 1 mg/L (≈ 2.55 µM); in experiment [16] it was 1 mg/L (≈ 2.55 µM); in [17], 1 mg/L (≈ 2.55 µM); in experiment [18], 0.25 mg/L (≈ 0.637 µM); in experiment [19] it was 2 mg/L (≈ 5.1 µM). Moreover, the MIC in experiment [20] amounted to 2 mg/L (≈ 5.1 µM); in [21], 0.5 mg/L (≈ 1.27 µM); in [22], 1 mg/L (≈ 2.55 µM); in experiment [23], 1 mg/L (≈ 2.55 µM). For the same molecule, the IC50 in experiment [2] was 1.72 µM.

On to `CCn1c(=O)c(C(=O)Nc2nnc(-c3cccc(OC)c3)s2)c(O)c2ccccc21`, for which the minimum inhibitory concentration (MIC) in experiment [1] amounted to 1.56 mg/L (≈ 3.69 µM). In experiment [2], the IC50 came to 2.17 µM.

Turning to `CCn1c(=O)c(C(=O)Nc2nnc(C3CCCCC3)s2)c(O)c2ccccc21`, the minimal inhibitory concentration (MIC) in [1] amounted to 12.5 mg/L (≈ 31.4 µM). The half-inhibitory concentration (IC50) in [2] came out at 0.55 µM.

Turning to `CCn1c(=O)c(C(=O)Nc2nnc(-c3ccccc3C)s2)c(O)c2ccccc21`, the MIC in experiment [1] came to 50 mg/L (≈ 123 µM). Moreover, the IC50 in experiment [2] turned out to be 3.18 µM.

For `CCOc1cccc(-c2nnc(NC(=O)c3c(O)c4ccccc4n(CC)c3=O)s2)c1`, in experiment [1], the MIC was determined as 3.12 mg/L (≈ 7.15 µM). For the same molecule, the IC50 in [2] worked out at 1.69 µM.

As to `CCn1c(=O)c(C(=O)Nc2nnc(-c3ccc([N+](=O)[O-])cc3)s2)c(O)c2ccccc21`, the MIC in [1] amounted to 50 mg/L (≈ 114 µM). Further, the concentration for half-maximal inhibition (IC50) in experiment [2] was found to be 1.61 µM.

Turning to `CCn1c(=O)c(C(=O)Nc2nnc(-c3ccc(Br)cc3)s2)c(O)c2ccccc21`, the MIC in [1] came out at 12.5 mg/L (≈ 26.5 µM). The IC50 in [2] worked out at 2.19 µM.

On to `CCOc1ccc(-c2nnc(NC(=O)c3c(O)c4ccccc4n(CC)c3=O)s2)cc1`, for which, in experiment [1], the MIC is 100 mg/L (≈ 229 µM). Moreover, the IC50 in [2] worked out at 2.3 µM.

On to `CCn1c(=O)c(C(=O)Nc2nnc(C)s2)c(O)c2ccccc21`, for which the MIC in experiment [3] was above 64 mg/L; in [4], 4 mg/L (≈ 12.1 µM); in experiment [5], above 64 mg/L; in experiment [6] it was above 64 mg/L; in experiment [7] it was 2 mg/L (≈ 6.05 µM); in [8] it was above 64 mg/L. The MIC in experiment [9] is 4 mg/L (≈ 12.1 µM); in [1] it was 0.78 mg/L (≈ 2.36 µM); in experiment [10], above 64 mg/L; in [11], above 64 mg/L; in experiment [12], above 64 mg/L; in experiment [13] it was above 64 mg/L. Besides, the MIC in experiment [14] was 2 mg/L (≈ 6.05 µM); in experiment [16] it was above 64 mg/L; in [17], above 64 mg/L; in experiment [18] it was 4 mg/L (≈ 12.1 µM); in experiment [19], above 64 mg/L; in [20], 2 mg/L (≈ 6.05 µM). Further, the MIC in [21] was 2 mg/L (≈ 6.05 µM); in [22], above 64 mg/L; in experiment [23], above 64 mg/L. Besides, in [2], the IC50 turned out to be 0.24 µM.

As for `CCn1c(=O)c(C(=O)Nc2nnc(-c3cccc(F)c3)s2)c(O)c2ccccc21`, the minimal inhibitory concentration (MIC) in [1] stood at 6.25 mg/L (≈ 15.2 µM). Also, the IC50 in experiment [2] was found to be 1.81 µM.

As for `CCn1c(=O)c(C(=O)Nc2nnc(-c3ccc(N(C)C)cc3)s2)c(O)c2ccccc21`, in experiment [1], the MIC turned out to be 3.12 mg/L (≈ 7.16 µM). The IC50 in experiment [2] was 2.66 µM.

For `CCn1c(=O)c(C(=O)Nc2nnc(-c3ccc(OC(F)F)cc3)s2)c(O)c2ccccc21`, the MIC in [1] was determined as 12.5 mg/L (≈ 27.3 µM). In addition, in experiment [2], the half-inhibitory concentration (IC50) was 1.42 µM.

Source of the values: ChEMBL document CHEMBL4680144, “N-thiadiazole-4-hydroxy-2-quinolone-3-carboxamides bearing heteroaromatic rings as novel antibacterial agents: Design, synthesis, biological evaluation and target identification” (Eur J Med Chem, 2020).
